From the NIST ThermoML archive (doi:10.1021/je900882r)

Key:
[1] = refractive index (Na D-line) (dimensionless); mn = molality of the nth substance listed, in mol/kg; settings: 298.15 K, 101 kPa, Liquid
[2] = mn = molality of the nth substance listed, in mol/kg; settings: 298.15 K, 101 kPa, Liquid
[3] = cn = amount concentration of the nth substance listed, in mol/dm3; settings: 298.15 K, 101 kPa, Liquid; for molar conductivity: Alternating current cell with electrodes; for viscosity: Capillary tube (Ostwald / Ubbelohde) method

CCCCn1cc[n+](C)c1.[Br-] [1-butyl-3-methylimidazolium bromide] + O
Settings	mass density, [2] [kg/m3]	refractive index, [1]
m1 = 0.0909	1001.54	1.3357
m1 = 0.0915	1001.77	1.3359
m1 = 0.097	1001.97	1.336
m1 = 0.1797	1005.97	1.3382
m1 = 0.1833	1006.34	1.3388
m1 = 0.185	1006.46	1.339
m1 = 0.267	1010.2	1.3407
m1 = 0.2863	1011.4	1.3416
m1 = 0.2866	1011.29	1.3414
m1 = 0.3496	1014.39	1.343
m1 = 0.3564	1014.36	1.3433
m1 = 0.3651	1014.07	1.3437

NCC(=O)O [2-aminoacetic acid] + O
[1], Standard Abbe refractometry
Settings	refractive index
m1 = 0.0941	1.3333
m1 = 0.1492	1.3339
m1 = 0.1972	1.3345
m1 = 0.2611	1.3354
m1 = 0.2975	1.3359
m1 = 0.303	1.336
m1 = 0.3935	1.337
m1 = 0.4408	1.3376

Settings	mass density [kg/m3]	molar conductivity [S·m2/mol]	viscosity [mPa·s]
[2], m1 = 0.0521	998.7	–	–
[2], m1 = 0.0997	1000.21	–	–
[2], m1 = 0.1577	1002.02	–	–
[2], m1 = 0.1992	1003.32	–	–
[2], m1 = 0.2235	1004.07	–	–
[2], m1 = 0.2902	1006.11	–	–
[2], m1 = 0.3266	1007.22	–	–
[2], m1 = 0.4495	1010.93	–	–
[2], m1 = 0.5179	1012.94	–	–
[3], c1 = 0.0007166	–	0.0153	–
[3], c1 = 0.001486	–	0.0148	–
[3], c1 = 0.002275	–	0.0146	–
[3], c1 = 0.003892	–	0.0145	–
[3], c1 = 0.00566	–	0.0142	–
[3], c1 = 0.007383	–	0.0139	–
[3], c1 = 0.00904	–	0.0137	–
[3], c1 = 0.0116	–	0.0135	–
[3], c1 = 0.01431	–	0.0132	–
[3], c1 = 0.01747	–	0.0129	–
[3], c1 = 0.02104	–	0.0126	–
[3], c1 = 0.02475	–	0.0123	–
[3], c1 = 0.052	–	–	0.881
[3], c1 = 0.0997	–	–	0.892
[3], c1 = 0.158	–	–	0.91
[3], c1 = 0.1999	–	–	0.92
[3], c1 = 0.2244	–	–	0.929
[3], c1 = 0.292	–	–	0.939
[3], c1 = 0.3289	–	–	0.945
[3], c1 = 0.4544	–	–	0.965
[3], c1 = 0.5246	–	–	0.98
